Data on eight molecules can be found in patent publication US11860161B2, “Detection and treatment of autoimmune disorders” (Seattle Children's Hospital, priority 2007, dated 2024).

In series [1] the test system is PD-L1 on APC. The experiment in a line: PD-L1 surface expression on APC (Mo, mDC) of PBMC cultured with caspase inhibitors. Format: cell-based, human. The protocol:
(§1) In order to determine which caspase (or caspases) is responsible for downmodulation of PD-L1 during active lupus, the effects of specific caspase inhibitors on PD-L1 expression in human APC were tested (Table IV). Control and SLE PBMC were incubated for one day in the presence of the individual caspase inhibitors at doses ranging from 10 uM to 50 uM (R&D Systems), with the appropriate level of DMSO as the carrier control (0.5% final concentration). Treated cells were assayed for cell death and apoptosis using Annexin V and PI (example shown in FIG. 4), as well as stained for cell-surface expression of PD-L1 on APC.
(§2) PBMC were thawed, washed, and diluted to 1-2×10^6 cells/ml in culture medium consisting of RPMI 1640 with L-glutamine (CellGro), 10% heat-inactivated NB human serum (Valley Biomedical), 1% penicillin/streptomycin (CellGro), and 0.1% beta-mercaptoethanol. Cells were plated in round-bottom 96-well plates (Coming Costar) and incubated at 37° C. in a humidified cell chamber with 5% CO2. Some wells were treated with pan-/poly-caspase inhibitors at the time of plating: 50 uM Q- Val-Asp-(non-o-methylated)—OPh (OPH) or Z- Val-Ala-Asp-(beta-o-methyl)-fluroromethylketone (Z-VAD) (both from R&D Systems), or DMSO as the carrier control (0.5% final concentration).
(§3) At the timepoints indicated, cells were surface-stained using fluorochrome- or biotin-conjugated monoclonal antibodies: anti-CD1c, (Miltenyi), anti-CD3, anti-PD-L1 (eBioscience), anti-CD11b, anti-CD11c, anti-CD14, anti-CD-86, anti-PD-L2 (Pharmingen/BD Biosciences), anti-CD45RO, anti-CD80, anti-CD83, and/or anti-HLA-DR (BioLegend), with isotype-matched, fluorochrome/biotin-labeled irrelevant monoclonal antibodies as controls. All samples were blocked using 0.5% human serum and anti-FeR antibody (Miltenyi) during staining. Cells were fixed using 2% paraformaldehyde in PBS after preliminary experiments indicated no effect of cell fixation on expression levels of PD-L1 and other surface markers. To assess apoptosis, some cultures were stained in parallel with Annexin V and propidium iodide (PI) (both from Becton Dickinson) as per the manufacturer's instructions. Flow cytometry was performed using a FACSCalibur or LSR II cytometer (Becton Dickinson), and data were analyzed using FlowJo software (Macintosh Version 6.3).

Series [2] has as its system Mo. The conditions noted are these: in vitro, prior study; cited from earlier work.
Series [3] relates to PD-L2. The experiment in a line: PD-L2 expression on APC with caspase inhibitors. The conditions noted are these: two healthy controls, through four days of culture (FIG. 5D). Format: cell-based, human. The protocol: as §2
as §3, with “Cells were fixed using 2% paraformaldehyde in PBS after preliminary experiments indicated no effect of cell fixation on expression levels of PD-L1 and other surface markers. To assess apoptosis, some cultures were stained in parallel with Annexin V and propidium iodide (PI) (both from Becton Dickinson) as per the manufacturer's instructions.” left out

Series [4] has as its system leukocytes. The settings on record: cited from earlier work.
The subject of series [5] is T lymphocytes. The experiment in a line: Foxp3 expression in T lymphocytes of PBMC cultures treated with OPH. The settings on record: 50 uM; healthy control and SLE cultures; three days later. The class given is cell-based, human. The protocol:
PBMC were cultured as above and a duplicate well of each sample treated with 50 uM OPH. PD-L1 upregulation on APC was confirmed in these cultures, and an aliquot of each sample was incubated further in order to allow interaction of APC with autologous T cells in culture. Three days later, the cells were fixed and permeabilized, and the T lymphocytes were assayed for intracellular expression of the regulatory T cell protein, Foxp3.

Series [6] deals with PBMC. The experiment in a line: PBMC cell death and apoptosis (Annexin V and PI) with caspase inhibitors. The class given is cell-based, human. The settings on record: 50 uM; control, SLE flare and SLE remission cultures; one day (FIG. 4B). On the procedure:
as §1
The inhibitors enter living cells and bind irreversibly at the caspase active sites, preventing further proteolytic activity by the enzyme. After incubation with caspase inhibitors, PBMC were gated by forward and side scatter and analyzed for percent cell death and apoptosis using Annexin V and PI (see FIG. 10). […] However, higher doses of some caspase-specific inhibitors (50 uM), did alter PD-L1 levels, both in Mo and mDC (example shown in FIG. 11). Normal PBMC were incubated in medium with or without various caspase inhibitors, and PD-L1 protein levels assessed at day one. […]

For series [7], the system named is APC surface markers CD80/86. The experiment in a line: Other APC surface markers (CD80/86 etc.) with caspase inhibitors. Format: cell-based, human. The conditions noted are these: PBMC from healthy controls, SLE flare, SLE remission (FIG. 5B). The protocol:
as §2
as §3, with “Cells were fixed using 2% paraformaldehyde in PBS after preliminary experiments indicated no effect of cell fixation on expression levels of PD-L1 and other surface markers. To assess apoptosis, some cultures were stained in parallel with Annexin V and propidium iodide (PI) (both from Becton Dickinson) as per the manufacturer's instructions.” left out

Series [8] concerns human macrophages. The settings on record: cited from earlier work.

Entries after “also recorded” stand apart in the source; their conditions may differ. Where a SMILES comes first, the peptide text is derived from it. The star is where a group is joined. Cbz = O=C(OCc1ccccc1)*; CH2F = FC*

Consider `COC(=O)CC[C@H](NC(=O)[C@H](CC(=O)OC)NC(=O)OCc1ccccc1)C(=O)N[C@H](C(=O)N[C@@H](CC(=O)OC)C(=O)CF)C(C)C` [Z-DEVD-fmk], for which the PD-L1 levels result in series [1] (normal PBMC, control mDC, day one (FIG. 11)) is reported as “greatly increased”.
On to `CCN(CC)CCCC(C)Nc1ccnc2cc(Cl)ccc12` (stereo not drawn) [chloroquine], for which the “effect on markers of Mo differentiation and maturation” value in series [2] is “no significant effect”.
On to `COC(=O)C[C@H](NC(=O)[C@H](C)NC(=O)[C@@H](NC(=O)OCc1ccccc1)C(C)C)C(=O)CF` [Z-VAD, Z- Val-Ala-Asp-(beta-o-methyl)-fluroromethylketone] (Cbz-Val-Ala-Asp(OMe)-CH2F), for which the PD-L2 expression result in series [3] is given as “not increased”. Also, the “reciprocal relationship between caspase activity and Mo PD-L1 expression” value in series [1] (all PBMC treated) is “held true”.
On to `Sc1ncnc2nc[nH]c12` [6-mercaptopurine], for which the “effect on markers of Mo differentiation and maturation” value in series [2] is on record as “no significant effect”.
In the case of `CN(C)CCCN1c2ccccc2Sc2ccc(Cl)cc21` [chlorpromazine], the “caspase activation and apoptosis in leukocytes” value in series [4] is “activate caspases and trigger apoptosis”.
In the case of `CC(C)[C@H](NC(=O)c1ccc2ccccc2n1)C(=O)N[C@@H](CC(=O)O)C(=O)COc1c(F)cccc1F` [OPH, Q- Val-Asp-(non-o-methylated)—OPh], the “level of Foxp3 expression (Foxp3 MFI and number of CD4+ cells expressing Foxp3)” value in series [5] is given as “remained unchanged”. In series [3], the PD-L2 expression result is given as “not increased”. Also, the “PD-L1 expression on the surface of both Mo and mDC” value in series [1] (50 uM, day one) was “increased”. Also, in series [1] (50 uM, controls, SLE flare, SLE remission (FIG. 4C)), the “PD-L1 expression in Mo compared to untreated” value is “significantly increases”. Also, the “PD-L1 on APC from healthy controls” value in series [1] (CD80/86+ APC, one day (FIG. 7)) is “upregulated PD-L 1 further; also recorded: increased”. For the same molecule, in series [1] (FIG. 5A), the “PD-L1 on PBMC” value is “increases” and the “number of CD14int among PD-L1+ PBMC” value is “increases”. Moreover, in series [1] (SLE flare, 50 uM, untreated 45%), the “mean percentage of Mo expressing PD-L1” value is on record as 97%. Also, the “mean percentage of mDC expressing PD-L1” value in series [1] (all three groups, 50 uM, P<0.013) is recorded as “more than doubled”. In series [1] (all three groups, 50 uM, p<0.02), the “increase of PD-L1 expression in immature mDC” value is “two- to three-fold”. The “PD-L1 levels in SLE flare APC” value in series [1] (one day (FIG. 7)) is recorded as “approached those of untreated control cells; also recorded: restored normal levels”. In series [6], the “apoptosis in PBMC” value is reported as “reduces”. For the same molecule, in series [7], the “other APC surface markers” value is given as “does not increase”.
Consider “Infliximab: can cause a lupus-like syndrome in susceptible individuals”, for which the “caspase activation and apoptosis in human macrophages” value in series [8] was “promote caspase activation and apoptosis”.
Regarding `COc1c(C)c2c(c(O)c1C/C=C(\C)CCC(=O)OCCN1CCOCC1)C(=O)OC2` [mycophenolate mofetil], the “effect on markers of Mo differentiation and maturation” value in series [2] was “no significant effect”.
